Here are results for two compounds from patent publication US8093387B2, “Process of making crystalline type II aripiprazole” (Synthon BV, priority 2005, dated 2012).

Molecules are shown by their SMILES. Read-outs that look alike come from different tables or passages of the source.

The conditions of series [1]: as taught by WO 03/26659 (EP 1330249); cited from earlier work.
Series [2] is described as follows: hygroscopicity of solid state forms of aripiprazole. It counts as physicochemical. As to conditions: crystalline Type II, not milled.

For the compound `O=C1CCc2ccc(OCCCCN3CCN(c4cccc(Cl)c4Cl)CC3)cc2N1` [Type I aripiprazole, 7-[4-[4-(2,3-dichlorophenyl)-1-piperazinyl]butoxy]-3,4-dihydrocarbostyril], the hygroscopicity result in series [1] is “significantly hygroscopic”.
With `O=C1CCc2ccc(OCCCCN3CCN(c4cccc(Cl)c4Cl)CC3)cc2N1` [Type II aripiprazole, 7-[4-[4-(2,3-dichlorophenyl)-1-piperazinyl]butoxy]-3,4-dihydrocarbostyril], the hygroscopicity result in series [2] is “not hygroscopic”.
